In US6582961B1, “Methods of protecting plants from pathogens” (priority 1998, dated 2003):

Legend:
Assay type in all cases: in vivo, Phaseolus vulgaris
[1] = tested on: PR-1a gene RNA expression; assay: Northern blot of PR-1a RNA in sprayed red kidney bean plants
Experimental: FIG. 1 is a northern blot of RNA probed for expression of PR-1a protein. RNA was extracted from 14 day-old red kidney bean plants 24 hours after leaves of the plants were sprayed until wet with one of five treatments. Lane 1: treatment with 3,500 ppm of peracetic acid (“PAA”). Lane 2: treatment with 10,000 ppm of PAA. Lane 3: treatment with 3,500 ppm of PAA plus 200 ppm of salicylic acid/humic acid mixture (see Example 1; hereafter “inducer mixture”). Lane 4: treatment with 10,000 ppm of PAA and 200 ppm of inducer mixture. Lane 5: treatment with 200 ppm inducer mixture, without PAA.
Fourteen-day old red kidney bean plants (Phaseolus vulgaris) were sprayed from an overhead boom until the leaves were wet and spray began to run off them. […]
The plants were then left for 24 hours, after which the leaves were subjected to extraction of their total RNA by the procedure described in Logemann, J., et al, “Improved method for the isolation of RNA from plant tissues.” Anal Biochem. 163:16-20 (1987). […] Hybridization was observed and analyzed by chemiluminescent detection of the bound probes using the “Genius System,” (Boehringer Mannheim Corporation, Indianapolis, Ind.), following the manufacturer's directions. […]

[2] = tested on: hydroxyproline-rich glycoprotein (HYP) RNA; assay: Northern blot of hydroxyproline-rich glycoprotein (HYP) RNA in sprayed bean plants
Experimental: FIG. 3 is a northern blot of RNA probed for expression of hydroxyproline-rich glycoproteins (“HPRG” or “HYP”). RNA was extracted from 14 day-old red kidney bean plants 24 hours after leaves of the plants were sprayed until wet with one of five treatments. Lane 1: water-only control. Lane 2: treatment with 3,500 ppm of PAA. Lane 3: treatment with 10,000 ppm of PAA. Lane 4: treatment with 3,500 ppm of PAA plus 200 ppm of inducer mixture. Lane 5: treatment with 10,000 ppm of PAA plus 200 ppm of inducer mixture. Lane 6: treatment with 200 ppm of inducer mixture, without presence of PAA.
Bean plants were grown and treated as in Example 2. Total RNA was extracted and gels were loaded, run, and analyzed following the procedures discussed in Example 2. Probes for HYP were prepared following the procedures set forth in Blee and Anderson, supra.

[3] = tested on: phenylalanine ammonia lyase (PAL) mRNA; assay: Northern blot of phenylalanine ammonia lyase (PAL) mRNA in sprayed bean plants
Experimental: FIG. 2 is a northern blot of RNA probed for expression of phenylalanine ammonia lyase (“PAL”). RNA was extracted from 14 day-old red kidney bean plants 24 hours after leaves of the plants were sprayed until wet with one of four treatments. Lane 1: water-only control. Lane 2: treatment with 3,500 ppm of PAA. Lane 3: treatment with 10,000 ppm of PAA. Lane 4: treatment with 3,500 ppm of PAA plus 200 ppm of inducer mixture.
Bean plants were grown and treated in the same manner as in the previous Example, except that a water-only control was run, but not a test of systemic inducer without PAA. Total RNA was extracted and gels were loaded, run, and analyzed following the procedures discussed in previous Example, with the exception that no lane was run containing RNA from plants sprayed with a systemic inducer without an ROS present. Probe for PAL mRNA transcripts was prepared following the procedures set forth in Blee, K. A., and Anderson, A. J. “Defense-related transcript accumulation in Phaseolus vulgaris L. colonized by the arbuscular mycorrhizal fungus Glomus intraradices Schenck & Smith.” Plant Physiol. 110: 675-688 (1996).

## CC(=O)OO [peracetic acid]
[1]; peracetic acid 3,500 ppm, leaves sprayed, RNA after 24 hours, FIG. 1 lane 1
  PR-1a gene RNA expression: increased
[1]; peracetic acid 10,000 ppm, 24 hours, FIG. 1 lane 2
  PR-1a gene RNA expression: higher amounts
[2]; peracetic acid 3,500 ppm, FIG. 3 lane 2
  RNA levels from HYP genes: increase in RNA levels from HYP genes over that of the water control
[2]; peracetic acid 10,000 ppm, compared to 3,500 ppm, FIG. 3 lane 3
  RNA levels from HYP genes: substantially more hybridizing RNA
[3]; peracetic acid 3,500 ppm, 24 hours, FIG. 2 lane 2
  mRNA for PAL genes: increase in mRNA for PAL genes over that of the water control
[3]; peracetic acid 10,000 ppm, compared to 3,500 ppm, FIG. 2 lane 3
  mRNA for PAL genes: substantial increase
